How the values were obtained:
Format in all cases: biochemical
[1] = molecular target: Human Factor Xa (Homo sapiens (Human), UniProt P00742); assay: Factor Xa enzyme activity, chromogenic substrate S-2222; conditions: human Factor Xa 0.18 U/mL, 300 μM S-2222, pH7.4; read-out: In vitro FXa inhibitory activity IC50
Procedure: (§1) Inhibitory activities of compounds of the present invention against factor XIa, Xa, XIIa, IXa, VIIa, plasma kallikrein or thrombin were evaluated using appropriate purified proteases and synthetic substrates. The rate of hydrolysis of the chromogenic substrate by the relevant protease was continuously measured at 405 nm. Inhibitory activity against each enzyme was calculated as % inhibition using the equation described below. % Inhibition=[[(rate without compound)−(rate with compound)]/(rate without compound)]×100%. Each half maximal inhibitory concentration (IC50) value was determined by plotting the concentration of compound of the invention against the % inhibition. (1-1) Factor XIa Enzyme Activity
(§2) Human Factor Xa (American Diagnostica Inc.) and human thrombin (Sigma) activities were measured at the enzyme concentrations of 0.18 U/mL and 0.12 U/mL, respectively in the same buffer containing 150 mM NaCl, 2 mg/mL PEG6000, 50 mM Tris-HCl (pH7.4), except that the reactions were started with 300 μM S-2222 ([…], Chromogenix) and 300 μM S-2366, respectively.

[2] = molecular target: human thrombin (Homo sapiens (Human), UniProt P00734); assay: Thrombin enzyme activity, chromogenic substrate S-2366; conditions: human thrombin 0.12 U/mL, 300 μM S-2366, pH7.4; read-out: In vitro Thrombin inhibitory activity IC50
Procedure: as §1, §2

[3] = molecular target: Human Factor XIa (Homo sapiens (Human), UniProt P03951); assay: Factor XIa enzyme activity, chromogenic substrate S-2366; conditions: purified human Factor XIa 0.1 U/mL, 300 μM S-2366, pH7.4; read-out: In vitro FXIa inhibitory activity IC50
Procedure: as §1
Human Factor XIa (Haematologic Technologies Inc.) activity was measured at an enzyme concentration of 0.1 U/mL in 150 mM NaCl, 5 mM KCl, 1 mg/mL PEG6000, 50 mM HEPES-NaOH (pH7.4) with 300 μM S-2366 (pyroGlu-Pro-Arg-pNA, Chromogenix).

Sequence of Human Factor XIa (P03951 388-625): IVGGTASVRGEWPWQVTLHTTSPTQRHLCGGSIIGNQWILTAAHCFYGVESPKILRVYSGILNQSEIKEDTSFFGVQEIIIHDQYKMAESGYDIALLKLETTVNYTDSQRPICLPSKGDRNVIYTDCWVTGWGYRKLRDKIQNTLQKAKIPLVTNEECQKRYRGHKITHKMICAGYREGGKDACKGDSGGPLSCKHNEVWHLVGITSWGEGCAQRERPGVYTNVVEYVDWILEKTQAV
Sequence of Human Factor XIa (P03951 19-387 partner): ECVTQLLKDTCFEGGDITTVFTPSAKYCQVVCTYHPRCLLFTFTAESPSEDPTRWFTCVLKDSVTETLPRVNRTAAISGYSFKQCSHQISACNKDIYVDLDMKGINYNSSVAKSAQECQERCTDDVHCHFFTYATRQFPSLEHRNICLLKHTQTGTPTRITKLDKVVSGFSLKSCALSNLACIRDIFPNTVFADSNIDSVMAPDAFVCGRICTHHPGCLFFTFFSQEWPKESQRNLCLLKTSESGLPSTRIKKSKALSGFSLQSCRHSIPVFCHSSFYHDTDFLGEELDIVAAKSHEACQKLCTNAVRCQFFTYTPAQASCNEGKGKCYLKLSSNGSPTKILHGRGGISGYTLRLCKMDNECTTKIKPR
Sequence of Human Factor Xa (P00742 235-488): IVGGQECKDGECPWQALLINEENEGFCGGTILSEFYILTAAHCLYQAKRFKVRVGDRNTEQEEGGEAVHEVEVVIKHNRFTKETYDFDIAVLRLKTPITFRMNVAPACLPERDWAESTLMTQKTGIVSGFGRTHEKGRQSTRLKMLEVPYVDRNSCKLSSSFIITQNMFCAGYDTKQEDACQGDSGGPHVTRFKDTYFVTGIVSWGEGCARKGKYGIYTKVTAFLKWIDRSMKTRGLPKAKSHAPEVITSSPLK
Sequence of Human Factor Xa (P00742 41-179 partner): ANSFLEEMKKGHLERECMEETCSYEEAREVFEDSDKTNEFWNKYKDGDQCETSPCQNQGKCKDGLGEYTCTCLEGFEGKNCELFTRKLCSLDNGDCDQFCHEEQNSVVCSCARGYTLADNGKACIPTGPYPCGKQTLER

- IC50 [1]: > 100 µM
- IC50 [2]: 57 µM
- IC50 [3]: 0.0054 µM
Compound: COC(=O)Nc1ccc(-c2[nH]c([C@@H]3C[C@H](C4CCN(S(C)(=O)=O)CC4)CN3C(=O)N3CCN(C(=N)N)CC3)nc2Cl)cc1 [Example 88, methyl [4-(2-{(2S,4R)-1-[(4-carbamimidoyl-1-piperazinyl)carbonyl]-4-[1-(methylsulfonyl)-4-piperidinyl]-2-pyrrolidinyl}-4-chloro-1H-imidazol-5-yl)phenyl]carbamate bis(trifluoroacetate)]
